Data published in US8449898B2 (priority 2007, dated 2013).
Where two headings read alike, the source gives them in different places.

What was measured:
[1] = system: Phytophthora infestans (the causal agent of tomato late blight); test: whole plant or invertebrate; type: in vivo; details: for pest or weed control at 0.4 ppm / pest or weed control at 2 ppm / pest or weed control at 10 ppm / pest or weed control at 40 ppm / pest or weed control at 200 ppm / pest or weed control at 0.04 ppm: Phytophthora infestans
[2] = system: Pseudoperonospora cubensis (the causal agent of cucumber downy mildew); test: Test B: cucumber downy mildew, preventive spray on cucumber seedlings; type: in vivo; details: for pest or weed control at 0.4 ppm / pest or weed control at 2 ppm / pest or weed control at 10 ppm / pest or weed control at 40 ppm / pest or weed control at 200 ppm / pest or weed control at 0.4 µg/mL / pest or weed control at 2 µg/mL / pest or weed control at 10 µg/mL / pest or weed control at 40 µg/mL / pest or weed control at 200 µg/mL / pest or weed control at 0.04 ppm: Pseudoperonospora cubensis
[3] = Table B, component (b) alone 0.08 ppm
[4] = Table B, component (b) alone 0.4 ppm
[5] = Table B, component (b) alone 2 ppm
[6] = Table B, component (b) alone 10 ppm
[7] = Table B, component (b) alone 40 ppm
[8] = component (b) alone 2 ppm (Compound 1 0 ppm)
[9] = component (b) alone 10 ppm (Compound 1 0 ppm)
[10] = component (b) alone 40 ppm (Compound 1 0 ppm)
[11] = Table A, component (b) alone 0.4 ppm
[12] = Table A, component (b) alone 2 ppm
[13] = Table A, component (b) alone 10 ppm
[14] = Table A, component (b) alone 40 ppm
[15] = Table A, component (b) alone 200 ppm
[16] = Table D, component (b) alone at 2 ppm
[17] = Table D, component (b) alone at 10 ppm
[18] = Table D, component (b) alone at 40 ppm
[19] = Table D, component (b) alone at 200 ppm
[20] = Table D, component (b) alone at 500 ppm
[21] = read-out: TLB Obsd (disease control rating), Table C, component (b) alone 0.4 ppm
[22] = read-out: TLB Obsd (disease control rating), Table C, component (b) alone 2 ppm
[23] = read-out: TLB Obsd (disease control rating), Table C, component (b) alone 10 ppm
[24] = read-out: TLB Obsd (disease control rating), Table C, component (b) alone 40 ppm
[25] = read-out: TLB Obsd (disease control rating), Table C, component (b) alone 200 ppm
[26] = Table C, component (b) alone 0.4 ppm, read-out: CDM Obsd (disease control rating)
[27] = Table C, component (b) alone 2 ppm, read-out: CDM Obsd (disease control rating)
[28] = Table C, component (b) alone 10 ppm, read-out: CDM Obsd (disease control rating)
[29] = Table C, component (b) alone 40 ppm, read-out: CDM Obsd (disease control rating)
[30] = Table C, component (b) alone 200 ppm, read-out: CDM Obsd (disease control rating)
[31] = component (b) alone 0.4 ppm (Compound 1 0 ppm), read-out: CDM Obsd
[32] = component (b) alone 2 ppm (Compound 1 0 ppm), read-out: CDM Obsd
[33] = component (b) alone 10 ppm (Compound 1 0 ppm), read-out: CDM Obsd
[34] = component (b) alone 40 ppm (Compound 1 0 ppm), read-out: CDM Obsd
[35] = component (b) alone 200 ppm (Compound 1 0 ppm), read-out: CDM Obsd

## Cc1ccc(C(C)NC(=O)[C@@H](NC(=O)OC(C)C)C(C)C)cc1 (some centres unmarked) [iprovalicarb]
[1]; [3]
  TLB Obsd (disease control rating): 0%
[1]; [4]
  TLB Obsd (disease control rating): 9%
[1]; [5]
  TLB Obsd (disease control rating): 39%
[1]; [6]
  TLB Obsd (disease control rating): 99%
[1]; [7]
  TLB Obsd (disease control rating): 100%
[1]; component (b) alone, 0.08 ppm
  TLB Obsd (observed effect, tomato late blight): 0
[1]; component (b) alone, 0.4 ppm
  TLB Obsd (observed effect, tomato late blight): 21
[1]; component (b) alone, 2 ppm
  TLB Obsd (observed effect, tomato late blight): 74
[1]; component (b) alone, 10 ppm
  TLB Obsd (observed effect, tomato late blight): 98
[1]; component (b) alone, 40 ppm
  TLB Obsd (observed effect, tomato late blight): 100
[2]; [3]
  CDM Obsd (disease control rating): 47%
[2]; [4]
  CDM Obsd (disease control rating): 57%
[2]; [5]
  CDM Obsd (disease control rating): 77%
[2]; [6]
  CDM Obsd (disease control rating): 100%
[2]; [7]
  CDM Obsd (disease control rating): 100%
[2]; component (b) alone 0.08 ppm (Compound 1 0 ppm)
  CDM Obsd: 26%
[2]; component (b) alone 0.4 ppm (Compound 1 0 ppm)
  CDM Obsd: 26%
[2]; [8]
  CDM Obsd: 26%
[2]; [9]
  CDM Obsd: 88%
[2]; [10]
  CDM Obsd: 100%
[2]; component (b) alone, 0.08 ppm
  CDM Obsd (observed effect, cucumber downy mildew): 0
[2]; component (b) alone, 0.4 ppm
  CDM Obsd (observed effect, cucumber downy mildew): 0
[2]; component (b) alone, 2 ppm
  CDM Obsd (observed effect, cucumber downy mildew): 0
[2]; component (b) alone, 10 ppm
  CDM Obsd (observed effect, cucumber downy mildew): 99
[2]; component (b) alone, 40 ppm
  CDM Obsd (observed effect, cucumber downy mildew): 100

## CCCOc1nc2ccc(I)cc2c(=O)n1CCC [proquinazid]
[1]; [11]
  TLB Obsd (disease control rating): 0%
[1]; [12]
  TLB Obsd (disease control rating): 0%
[1]; [13]
  TLB Obsd (disease control rating): 0%
[1]; [14]
  TLB Obsd (disease control rating): 24%
[1]; [15]
  TLB Obsd (disease control rating): 0%
[1]; component (b) alone, 0.04 ppm
  TLB Obsd: 17%
[1]; component (b) alone, 2 ppm
  TLB Obsd: 0%
[1]; component (b) alone, 10 ppm
  TLB Obsd: 8%
[1]; component (b) alone, 40 ppm
  TLB Obsd: 8%
[1]; component (b) alone, 200 ppm
  TLB Obsd: 17%
[2]; [11]
  CDM Obsd (disease control rating): 47%
[2]; [12]
  CDM Obsd (disease control rating): 47%
[2]; [13]
  CDM Obsd (disease control rating): 47%
[2]; [14]
  CDM Obsd (disease control rating): 47%
[2]; [15]
  CDM Obsd (disease control rating): 47%
[2]; Table G, component (b) alone at 0.4 ppm
  CDM Obsd: 26%
[2]; Table G, component (b) alone at 2 ppm
  CDM Obsd: 26%
[2]; Table G, component (b) alone at 10 ppm
  CDM Obsd: 26%
[2]; Table G, component (b) alone at 40 ppm
  CDM Obsd: 26%
[2]; Table G, component (b) alone at 200 ppm
  CDM Obsd: 26%
[2]; component (b) alone, 0.04 ppm
  CDM Obsd: 0%
[2]; component (b) alone, 2 ppm
  CDM Obsd: 0%
[2]; component (b) alone, 10 ppm
  CDM Obsd: 0%
[2]; component (b) alone, 40 ppm
  CDM Obsd: 0%
[2]; component (b) alone, 200 ppm
  CDM Obsd: 0%

## [Cu+2].[OH-].[OH-] [copper hydroxide]
[1]; [16]
  TLB Obsd: 32%
[1]; [17]
  TLB Obsd: 48%
[1]; [18]
  TLB Obsd: 40%
[1]; [19]
  TLB Obsd: 70%
[1]; [20]
  TLB Obsd: 91%
[1]; component (b) alone, 2 ppm
  TLB Obsd (observed effect, tomato late blight): 22
[1]; component (b) alone, 10 ppm
  TLB Obsd (observed effect, tomato late blight): 36
[1]; component (b) alone, 40 ppm
  TLB Obsd (observed effect, tomato late blight): 50
[1]; component (b) alone, 200 ppm
  TLB Obsd (observed effect, tomato late blight): 71
[1]; component (b) alone, 500 ppm
  TLB Obsd (observed effect, tomato late blight): 77
[2]; [16]
  CDM Obsd: 53%
[2]; [17]
  CDM Obsd: 63%
[2]; [18]
  CDM Obsd: 85%
[2]; [19]
  CDM Obsd: 85%
[2]; [20]
  CDM Obsd: 88%
[2]; [8]
  CDM Obsd: 47%
[2]; [9]
  CDM Obsd: 47%
[2]; [10]
  CDM Obsd: 47%
[2]; component (b) alone 200 ppm (Compound 1 0 ppm)
  CDM Obsd: 85%
[2]; component (b) alone 500 ppm (Compound 1 0 ppm)
  CDM Obsd: 93%
[2]; component (b) alone, 2 ppm
  CDM Obsd (observed effect, cucumber downy mildew): 0
[2]; component (b) alone, 10 ppm
  CDM Obsd (observed effect, cucumber downy mildew): 0
[2]; component (b) alone, 40 ppm
  CDM Obsd (observed effect, cucumber downy mildew): 0
[2]; component (b) alone, 200 ppm
  CDM Obsd (observed effect, cucumber downy mildew): 29
[2]; component (b) alone, 500 ppm
  CDM Obsd (observed effect, cucumber downy mildew): 37

## O=C1c2ccccc2C(=O)N1SC(Cl)(Cl)Cl [folpet]
[1]; [21]
  pest or weed control at 0.4 ppm: 0%
[1]; [22]
  pest or weed control at 2 ppm: 9%
[1]; [23]
  pest or weed control at 10 ppm: 9%
[1]; [24]
  pest or weed control at 40 ppm: 24%
[1]; [25]
  pest or weed control at 200 ppm: 75%
[1]; read-out: TLB Obsd (observed effect, tomato late blight), component (b) alone, 0.04 ppm
  pest or weed control at 0.04 ppm: 0%
[1]; read-out: TLB Obsd (observed effect, tomato late blight), component (b) alone, 2 ppm
  pest or weed control at 2 ppm: 8%
[1]; read-out: TLB Obsd (observed effect, tomato late blight), component (b) alone, 10 ppm
  pest or weed control at 10 ppm: 31%
[1]; read-out: TLB Obsd (observed effect, tomato late blight), component (b) alone, 40 ppm
  pest or weed control at 40 ppm: 46%
[1]; read-out: TLB Obsd (observed effect, tomato late blight), component (b) alone, 200 ppm
  pest or weed control at 200 ppm: 93%
[2]; [26]
  pest or weed control at 0.4 ppm: 47%
[2]; [27]
  pest or weed control at 2 ppm: 47%
[2]; [28]
  pest or weed control at 10 ppm: 47%
[2]; [29]
  pest or weed control at 40 ppm: 92%
[2]; [30]
  pest or weed control at 200 ppm: 95%
[2]; [31]
  pest or weed control at 0.4 µg/mL: 47%
[2]; [32]
  pest or weed control at 2 µg/mL: 47%
[2]; [33]
  pest or weed control at 10 µg/mL: 47%
[2]; [34]
  pest or weed control at 40 µg/mL: 47%
[2]; [35]
  pest or weed control at 200 µg/mL: 88%
[2]; component (b) alone, 0.04 ppm, read-out: CDM Obsd (observed effect, cucumber downy mildew)
  pest or weed control at 0.04 ppm: 0%
[2]; component (b) alone, 2 ppm, read-out: CDM Obsd (observed effect, cucumber downy mildew)
  pest or weed control at 2 ppm: 0%
[2]; component (b) alone, 10 ppm, read-out: CDM Obsd (observed effect, cucumber downy mildew)
  pest or weed control at 10 ppm: 44%
[2]; component (b) alone, 40 ppm, read-out: CDM Obsd (observed effect, cucumber downy mildew)
  pest or weed control at 40 ppm: 74%
[2]; component (b) alone, 200 ppm, read-out: CDM Obsd (observed effect, cucumber downy mildew)
  pest or weed control at 200 ppm: 87%

## C[C@@]1(c2ccc(Oc3ccccc3)cc2)OC(=O)N(Nc2ccccc2)C1=O (racemic) [famoxadone]
[1]; [21]
  pest or weed control at 0.4 ppm: 17%
[1]; [22]
  pest or weed control at 2 ppm: 26%
[1]; [23]
  pest or weed control at 10 ppm: 67%
[1]; [24]
  pest or weed control at 40 ppm: 53%
[1]; [25]
  pest or weed control at 200 ppm: 66%
[1]; read-out: TLB Obsd, component (b) alone, 0.04 ppm
  pest or weed control at 0.04 ppm: 100%
[1]; read-out: TLB Obsd, component (b) alone, 2 ppm
  pest or weed control at 2 ppm: 32%
[1]; read-out: TLB Obsd, component (b) alone, 10 ppm
  pest or weed control at 10 ppm: 93%
[1]; read-out: TLB Obsd, component (b) alone, 40 ppm
  pest or weed control at 40 ppm: 98%
[1]; read-out: TLB Obsd, component (b) alone, 200 ppm
  pest or weed control at 200 ppm: 100%
[2]; [26]
  pest or weed control at 0.4 ppm: 47%
[2]; [27]
  pest or weed control at 2 ppm: 63%
[2]; [28]
  pest or weed control at 10 ppm: 95%
[2]; [29]
  pest or weed control at 40 ppm: 100%
[2]; [30]
  pest or weed control at 200 ppm: 100%
[2]; [31]
  pest or weed control at 0.4 µg/mL: 47%
[2]; [32]
  pest or weed control at 2 µg/mL: 58%
[2]; [33]
  pest or weed control at 10 µg/mL: 87%
[2]; [34]
  pest or weed control at 40 µg/mL: 100%
[2]; [35]
  pest or weed control at 200 µg/mL: 100%
[2]; component (b) alone, 0.04 ppm, read-out: CDM Obsd
  pest or weed control at 0.04 ppm: 100%
[2]; component (b) alone, 2 ppm, read-out: CDM Obsd
  pest or weed control at 2 ppm: 21%
[2]; component (b) alone, 10 ppm, read-out: CDM Obsd
  pest or weed control at 10 ppm: 72%
[2]; component (b) alone, 40 ppm, read-out: CDM Obsd
  pest or weed control at 40 ppm: 100%
[2]; component (b) alone, 200 ppm, read-out: CDM Obsd
  pest or weed control at 200 ppm: 100%
